Entries after “also recorded” stand apart in the source; their conditions may differ. Marks after values point to notes of the source that are not given here.
Legend:
[1] = test system: OVA evoked asthma in sensitized guinea-pigs; assay: Relief of antigen-evoked asthma by inhalation after challenge in OVA sensitized guinea-pigs; assay type: in vivo; details: nebulized drug inhaled after antigen challenge
Description: In an embodiment of the invention, the ovalbumin (OVA) sensitized guinea-pigs were first challenged with nebulized antigen to evoke asthma, then the animals were allowed to inhale nebulized R-bambuterol or bambuterol. […] In a further embodiment of the invention, the sensitized guinea-pigs were first pretreated with nebulized R-bambuterol or bambuterol by inhalation. After three minutes, the same animals were challenged with nebulized antigen. […] The fast onset of action in the invention can also not be explained by Svenssion's in vitro metabolic study noted above that the dominate product is mono-carbamate bambuterol and litter terbutaline at initial phase., while the major amount of terbutaline will be formed at much later phase. (Svensson et al., 1988).

[2] = test system: OVA evoked asthma in sensitized guinea pigs; assay: Airway resistance and dynamic pulmonary compliance after inhalation in OVA sensitized guinea pigs; assay type: in vivo; details: n=8
[3] = test system: OVA evoked asthma in sensitized guinea pigs; assay: as above; assay type: in vivo; details: for change of Raw and Cdyn at resting state after inhalation: before OVA challenge; for protection against asthma attack by antigen (OVA) challenge: pretreatment by inhalation about three minutes before OVA challenge
Description: Sensitization of animals: Ovalbumin (10 μg/ml) was injected into guinea-pigs subcutaneously and coincidentally with an intraperitoneal injection of B. pertussis vaccine. Identical injection of ovalbumin and adjuvant were made day 15 and 21 days later. On day 28th the animals were examined and used for studies.
Test Methods: The sensitized guinea pigs wer anaethetized. A cannula was inserted into the trachea. A plueral cannula was inserted into pleural space through the chest wall. Airway resistance (Raw) and dynamic pulmonary compliance (Cdyn) were measured by using the signals of intraplueral pressure, airflow and tidal volume.
The animals were restreined in closed chamber and nebulized R-bambuterol or S-bambuterol were inhaled at the dose of 126 μg/kg. After three minutes conditioning, the animals were then challenged with nebulized OVA to evoke asthma. Airway resistance (Raw) and dynamic pulmonary compliance (Cdyn) were measured before and after evoking asthma.

[4] = test system: histamine evoked asthma in conscious guinea-pigs; assay: Protection against histamine-evoked asthma by inhaled drug in conscious guinea pigs; assay type: in vivo, guinea pigs (Dunkin-Hartley strain); details: for Latency: no collapse over 360 sec recorded as 360
Description: (§1) Test methods: Guinea pigs (Dunkin-Hartley strain, 200±30 g) were fasted overnight but given water ad libidum. The animals were restrained individually in a glass chamber and exposed to aerosol histamine generated by a nebulizer from a 0.2% aqueous solution of histamine under constant pressure at dose of 0.5 ml/min for a period of 15 sec. The animal was removed from the chamber, and its behavior was monitored. Assign of collapse and the latency time from exposure to collapse were recorded. Only the animals with latency time less than 120 sec, as an indication of sensitive to histamine, were chosen for later experiments. The animals chosen were allowed to recover completely by resting for 24 hours before experiments. R-bambuterol and racemic bambuterol hydrochloride were dissolved in saline and nublized in a nebulizer.
Study of dose-response: One hours before the exposure to aerosol histamine, animals were randomized into groups (n=8, equal sex), and Nublized R-bambuterol hydrochloride or bambuterol hydrochloride in doses of 63, 126, 252 and 504 μg/kg, and vehicle control were inhaled by the animals via a mouth and nasal mask. The numbers of collapsed animal as a result of asthmatic reaction to aerosol histamine were counted, and the latency times were recorded. Both of these parameters were used as quantitative measurements of the protective effects of the treatments on bronchospasm evoked by aerosol histamine.

[5] = test system: histamine evoked asthma in conscious guinea-pigs; assay: Histamine-evoked asthma in conscious guinea pigs after oral administration; assay type: in vivo, guinea pigs (Dunkin-Hartley strain); details: for Latency: no collapse over 360 sec recorded as 360
Description: as §1
Comparison of the anti-asthma effects of R-bambuterol (R-BM) and bambuterol (RS-BM) administered by oral and by inhalation in conscious guinea pigs. Test methods: same as Example 1.
Study of dose-response: Same as Example 1, except the following: four hours before the exposure to aerosol histamine, animals were randomized into groups (n=8, equal male and female), and given R-bambuterol hydrochloride or racemic bambuterol hydrochloride in doses of 1.0, 2.0, 4.0 and 8.0 mg/kg, and vehicle control, orally via a stomach tube.

[6] = test system: histamine evoked asthma in conscious guinea-pigs; assay: Time course of anti-asthma effects after oral administration or inhalation; assay type: in vivo; details: for No. of collapsed: n=8
Description: The time course of the anti-asthma effects of R-bambuterol (R-BM) and bambuterol (RS-BM) after administered by oral and by inhalation. Test Methods: same as example 1 except the following:
For orally administration, R-Bambuterol hydrochloride or racemic bambuterol hydrochloride at 4 and 8 mg/kg, and vehicle alone, were administered to the guinea pigs orally via a stomach tube. Exposure of treated animals to aerosol histamine (as above) was done at 1, 4 and 12 hours after R-bambuterol or bambuterol treatment. For each experimental group, there were a total of 8 animals with equal number in sex, and no repeated exposure was made for individual experimental animals.
For inhalation, R-Bambuterol hydrochloride or racemic bambuterol hydrochloride at 0.252 and 0.504 mg/kg, and vehicle alone, were nebulized and administered to the guinea pigs by inhalation. Exposure of drug treated animals to aerosol histamine (as above) was done at 1,4 and 12 hours after drug treatment. For each experimental group, there were a total of 8 animals with equal number in sex, and no repeated exposure was made for individual experimental animals.

[7] = test system: OVA evoked asthma in sensitized guinea pigs; assay: Airway resistance in OVA asthma attack after oral administration in sensitized guinea pigs; assay type: in vivo
Description: Sensitized animals were divided into Saline (control), S-Bambuterol and R-bambuterol groups. R or S bambuterol were administered by both inhalation by oral ([…]). Airway resistance (Raw) and dynamic pulmonary compliance (Cdyn) were measured at resting or during astham challenge by OVA. Animal preparation and experimental methods were similar as described previously.

[8] = R-BM inhaled 504 μg/kg, OVA challenge
[9] = after R-BM inhaled 504 μg/kg, before OVA challenge
[10] = inhale, at maximum effective dose (R-BM 0.252, RS-BM 0.505 mg/Kg)
[11] = oral, at maximum effective dose (R-BM 4.0, RS-BM 8.0 mg/Kg)
[12] = inhalation (R-BM 252 μg/kg, RS-BM 504 μg/kg), histamine 60 min after
[13] = inhalation (R-BM 252 μg/kg, RS-BM 504 μg/kg), histamine 240 min after
[14] = inhalation (R-BM 252 μg/kg, RS-BM 504 μg/kg), histamine 720 min after
[15] = oral (R-BM 4.0 mg/kg, RS-BM 8.0 mg/kg), histamine 60 min after
[16] = oral (R-BM 4.0 mg/kg, RS-BM 8.0 mg/kg), histamine 240 min after
[17] = oral (R-BM 4.0 mg/kg, RS-BM 8.0 mg/kg), histamine 720 min after

With `CN(C)C(=O)Oc1cc(OC(=O)N(C)C)cc([C@@H](O)CNC(C)(C)C)c1` [R-bambuterol] the “relief of asthmatic symptoms after inhalation” value [1] was “immediately relieved within matter of tenths of seconds to a couple of minutes”, the “Cdyn (dynamic pulmonary compliance)” value [2, 8] was 0.62 ± 0.02 and the “Raw (airway resistance)” value [2, 8] was 11.51 ± 1.09. For the same compound, the “Cdyn (dynamic pulmonary compliance)” value [2, 9] was 0.70 ± 0.03, the “Raw (airway resistance)” value [2, 9] was 10.91 ± 0.41 and the “change of Raw and Cdyn at resting state after inhalation” value [3] was “reduced airway resistance and enhanced pulmonary dynamic compliance”. For the same compound, the “change of Raw and Cdyn at resting state after inhalation” value ([3]; listed as R-Bambuterol) was “no significant changes both in Raw and Cdyn”, the “protection against asthma attack by antigen (OVA) challenge” value [3] was “significant anti-asthma effects; also recorded: fully protection against the asthma attack” and the “protection against asthma attack by antigen (OVA) challenge” value ([3]; listed as R-BM) was “full protection”. The “dosage required for maximum anti-asthmatic effects (complete protection against histamine) by inhalation” value ([4]; inhalation) was 256 µg/kg, the “maximum effective dose required by inhalation” value ([4]; inhale) was “Inhale (0.252) mg/Kg” and the “Animal collapsed (%)” value [4, 10] was 0%. For the same compound, the “Animal collapsed (number/group)” value [4, 10] was 0/8, the Latency ([4]; inhaled 63 μg/Kg) was 95 ± 108 s and the Latency ([4]; inhaled 126 μg/Kg) was 243 ± 161 s. For the same compound, the Latency ([4]; inhaled 252 μg/Kg) was 360 ± 0 s, the Latency ([4]; inhaled 504 μg/Kg) was 360 ± 0 s and the “potency relative to bambuterol” value ([4]; inhaled aerosols, histamine evoked asthma) was “about twice”. For the same compound, the “Oral:Inhale ratio of maximum effective dose” value ([4]; oral dose vs inhaled dose for maximum anti-asthmatic effect, listed as R-bamubuterol) was 16, the “maximum effective dose required by oral (none of the histamine challenged animals collapsed)” value ([5]; oral) was 4 mg/kg and the Latency ([5]; oral 1.0 mg/Kg) was 179 ± 151 s. For the same compound, the Latency ([5]; oral 2.0 mg/Kg) was 295 ± 121 s, the “(Collapsed)/No. in group” value ([5]; oral 4.0 mg/Kg, four hours before aerosol histamine, n=8) was 0/8**^▴▴ and the Latency ([5]; oral 4.0 mg/Kg) was 360 ± 0 s. For the same compound, the Latency ([5]; oral 8.0 mg/Kg) was 360 ± 0 s, the “Animal collapsed (%)” value [5, 11] was 0% and the “Animal collapsed (number/group)” value [5, 11] was 0/8. For the same compound, the “maximum effective dose required by oral (none of the histamine challenged animals collapsed)” value ([5]; oral, listed as R-BM) was “Oral (4.0) mg/Kg”, the Latency [6, 12] was 360 ± 0 s and the No. of collapsed [6, 12] was 0/8. The Latency [6, 13] was 360 ± 0 s, the No. of collapsed [6, 13] was 0/8 and the Latency [6, 14] was 330 ± 84 s. The No. of collapsed [6, 14] was 1/8, the “maximum anti-asthmatic effects by inhalation faster than by oral administration” value ([6]; inhalation vs oral) was 4 h and the Latency [6, 15] was 258 ± 141 s. For the same compound, the No. of collapsed [6, 15] was 3/8, the Latency [6, 16] was 360 ± 0 s and the No. of collapsed [6, 16] was 0/8. The Latency [6, 17] was 285 ± 129 s, the No. of collapsed [6, 17] was 2/8 and the “change in Raw / asthmatic response during the asthmatic attack by OVA” value ([7]; oral) was “little changes in Raw”. The “Changes in Airway resistance (Raw) at 4th min after OVA challenge” value ([7]; pretreated oral 4 m/kg, n=8) was 0.14 ± 0.13 and the “Changes in Airway resistance (Raw) at 5th min after OVA challenge” value ([7]; pretreated oral 4 m/kg, n=8) was 0.11 ± 0.08.

Source: patent US20120082626A1, “USE OF R-BAMBUTEROL AS INHALED MEDICAMENT AND COMBINATION THERAPIES FOR TREATMENT OF RESPIRATORY DISORDERS” (priority 2009, published 2012)
